Measurements as given in paper PMC6543911, “Discovery of Coumarin as Microtubule Affinity-Regulating Kinase 4 Inhibitor That Sensitize Hepatocellular Carcinoma to Paclitaxel” (Frontiers in Chemistry, 2019).
One block for each molecule: values may come before it.

What was measured:
MARK4 = molecular target: MARK4; set-up: method as in Naz et al., 2015; conditions: ref Naz et al., 2015; read-out: Kd between BX-795 and MARK4; cited from earlier work
AKT1 = AKT1 (Homo sapiens, UniProt P31749); test: Kinase activity assay using AKT1 as enzyme; format: biochemical; conditions: duplicate, means ± SEM
Description: (§1) With these coumarins in hand, we performed kinase assay using MARK4 catalytic domain as enzyme to test the MARK4 inhibitory activity of these samples. […] To characterize the selectivity of compound 50, we performed kinase activity assay by using PDK1, AKT1, Src, and MARK4 as enzyme.
(§2) The kinase activity of MARK4 was measured via ADP-Glo™ kinase assay kit (Promega, USA) under manufacturer's instruction. The recombinant MARK4 catalytic domain was used as kinase. MARK4 (5 nM) activity was tested in a reaction (10 μL) containing 25 mM Tris (pH 7.6), 10 mM MgCl2, 150 mM NaCl, 1 mM EDTA, 1 mM DTT, 100 μM ATP, 5 μM MAP4 and varied concentrations of samples for 30 min. The reaction progress was monitored on Thermo Scientific Varioskan Flash Multimode Reader. Each data point was collected in duplicate and kinetic parameters were obtained using GraphPad Prism v6.0 software.

MARK4 catalytic domain [1] = molecular target: T1, MARK4 catalytic domain (Homo sapiens, UniProt Q96L34); test: Kinase activity assay (ADP-Glo) using MARK4 as enzyme; format: biochemical; conditions: for IC50: MARK4 5 nM, 100 μM ATP, 5 μM MAP4, 30 min, duplicate, means ± SEM
T1 construct: The recombinant MARK4 catalytic domain was used as kinase; made in house; host or cells: E. coli BL21 (DE3)
Description: MARK4 catalytic domain sequence was subcloned into pET-28a vector. Protein expression in E. coli. BL21 (DE3) was induced by IPTG overnight at 16°C, and the cells were then pelleted by centrifugation at 4,000 rpm for 15 min and resuspended in 20 mL buffer (20 mM Tris-HCl, 150 mM NaCl, 25 mM imidazole pH 8.0). Proteins were purified by nickel-affinity chromatography followed by thrombin cleavage. The proteins were further purified by size-exclusion chromatography using a Superdex 75 column (GE Healthcare).
as §2

PDK1 = molecular target: T2, PDK1 (Homo sapiens, UniProt O15530); test: Kinase activity assay using PDK1 as enzyme; format: biochemical; conditions: duplicate, means ± SEM
T2 sequence (O15530 1-556): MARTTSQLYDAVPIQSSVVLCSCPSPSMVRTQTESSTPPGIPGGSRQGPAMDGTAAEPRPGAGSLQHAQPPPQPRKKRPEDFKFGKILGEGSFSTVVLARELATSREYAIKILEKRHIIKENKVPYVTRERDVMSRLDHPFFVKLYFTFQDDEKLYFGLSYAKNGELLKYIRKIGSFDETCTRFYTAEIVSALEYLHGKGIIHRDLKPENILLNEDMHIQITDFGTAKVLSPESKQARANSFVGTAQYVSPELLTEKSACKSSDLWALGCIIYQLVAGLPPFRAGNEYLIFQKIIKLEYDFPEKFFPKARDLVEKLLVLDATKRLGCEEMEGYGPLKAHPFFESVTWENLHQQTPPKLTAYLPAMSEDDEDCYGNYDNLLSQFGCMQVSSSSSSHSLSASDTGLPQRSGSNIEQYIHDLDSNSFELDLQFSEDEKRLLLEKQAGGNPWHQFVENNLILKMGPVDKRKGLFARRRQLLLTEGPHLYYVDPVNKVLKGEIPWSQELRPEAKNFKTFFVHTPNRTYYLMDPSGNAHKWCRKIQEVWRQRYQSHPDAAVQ
Description: as §1, §2

Src = Src (Homo sapiens, UniProt P12931); test: Kinase activity assay using Src as enzyme; format: biochemical; conditions: duplicate, means ± SEM
Description: as §1, §2

HEK-293T cells = test: Cell viability assay in HEK-293T cells; format: cell-based; conditions: human normal HEK-293T cells
SMMC-7721 cells [2] = test: Cell viability assay (MTT) in SMMC-7721 cells; format: cell-based
Description: (§3) HepG2 and SMMC-7721 cells were cultured in DMEM medium (Gibco) supplemented with 10% FBS (Gibco, USA). For transient transfection, cells were transfected with DNA by Lipofectamine 2000 (Thermo fisher, USA).
(§4) HCC cells (100 μL/each well, 20,000 cells/mL) were seeded in a 96-well culture plate and allowed to grow for 24 h in DMEM medium supplemented with 10% FBS and 1% penicillin/streptomycin sulfate. The cells were then treated with drugs or vehicle control and incubated in a 5% CO2 incubator for indicated time. At the end of incubation, 10 μL of MTT stock solution (5 mg/mL) was added into each well. The plate was continued to be incubated at 37°C for 4 h before the medium was removed. Then, DMSO (100 μL) was added into each well, followed by thorough shaking. The absorbance of the formazan product was measured at 570 nm on Thermo Scientific Varioskan Flash Multimode Reader. The IC50 value was obtained by fitting dose-response data to a three parametric non-linear regression model using GraphPad Prism 6.0 software.

HepG2 cells [3] = test: Cell viability assay (MTT) in HepG2 cells; format: cell-based
Description: as §3, §4

MAP4 phosphorylation = test: Immunoblotting of MAP4 phosphorylation in HepG2 cell lysates; format: cell-based; conditions: HepG2 cells, 15 μM, 36 h
Description: HepG2 cells (2 × 10^5 cells/well) were plated in a 6-well plate and treated with compound 50 (15 μM) and vehicle at 37°C for 36 h. Cells were harvested, washed with physiological saline, and lysed with RIPA lysis buffer (Beyotime) including phosphatase and protease cocktail (Bimake). Protein was quantified by BCA protein assay kit (Bestbio) and subjected to SDS-PAGE. The separated proteins were transferred onto PVDF membranes and probed with antibody (anti-p-MAP4, anti-MAP4, and anti-actin) and peroxidase-conjugated secondary antibody, which was followed by enhanced chemiluminescence detection (Amersham Biosciences).

MARK4 catalytic domain [4] = molecular target: T1, MARK4 catalytic domain; test: Surface plasmon resonance (SPR) assay; format: binding; conditions: different sample concentrations, read-out: dissociation constant (Kd value) toward MARK4
Description: The interaction of small molecule with MARK4 was monitored by surface plasmon resonance (SPR) using a BIAcore T100 instrument (GE Healthcare, USA). In brief, recombinant MARK4 catalytic domain was immobilized on a carboxyl methylated dextran sensor chip (Sensor Chip CM3). A flow channel blocked by ethanolamine was used as control surface. The specific interaction of samples with the immobilized MARK4 catalytic domain was assessed. All samples were analyzed at a flow rate of 30 μL/min with 10 mM HEPES running buffer and contact time of 260 s. The surface was washed and regenerated with a 10 mM glycine-HCl buffer at pH 3.0 followed by a 30 min waiting time for dissolution after each experiment. The analyses were performed in BIAcore T100 evaluation software, version 2.0.2 (GE Healthcare, USA).

HepG2 cells [5] = test: Colony formation assay of HepG2 cells; format: cell-based; conditions: compared with vehicle
HepG2 cells [6] = test: Cell apoptosis assay (Annexin V-FITC/PI flow cytometry) in HepG2 cells; format: cell-based
Description: (§5) HCC cells (2 × 10^5 cells/well) were plated in a 6-well plate and treated with samples at 37°C for 36 h. After incubation, the cells were harvested and washed with ice-cold PBS. Annexin V-FITC-PI apoptosis detection kit (Abcam, USA) was used for a direct observation of viable, early apoptotic, and late apoptotic cells. Annexin V-FITC and propidium iodide were added according to the manufacturer's instructions, and the samples were incubated in the dark for 15 min. The apoptosis ratio was analyzed using BD FACSCalibur flow cytometry.

MARK4 catalytic domain [7] = molecular target: T1, MARK4 catalytic domain; test: Thermal shift assay; format: binding; conditions: sample 1 μM
Description: Recombinant MARK4 catalytic domain was diluted with PBS and divided into two aliquots, with one aliquot being treated with sample (1 μM) and the other aliquot with vehicle. After 20 min of incubation at room temperature, the respective mixtures were divided into smaller (40 μL) aliquots and heated individually at different temperatures for 3 min, followed by cooling at room temperature for 3 min. The appropriate temperatures were determined in preliminary CETSA experiments. The heated mixtures were centrifuged at 20,000 × g at 4°C for 20 min in order to separate the soluble fractions from precipitates. The supernatants were transferred to new microtubes and analyzed by HPLC.

SMMC-7721 cells [8] = test: Cell apoptosis assay (Annexin V-FITC/PI flow cytometry) in SMMC-7721 cells; format: cell-based; conditions: 15 μM, 36 h
Description: as §5

T1 sequence (Q96L34 59-310 limits assumed): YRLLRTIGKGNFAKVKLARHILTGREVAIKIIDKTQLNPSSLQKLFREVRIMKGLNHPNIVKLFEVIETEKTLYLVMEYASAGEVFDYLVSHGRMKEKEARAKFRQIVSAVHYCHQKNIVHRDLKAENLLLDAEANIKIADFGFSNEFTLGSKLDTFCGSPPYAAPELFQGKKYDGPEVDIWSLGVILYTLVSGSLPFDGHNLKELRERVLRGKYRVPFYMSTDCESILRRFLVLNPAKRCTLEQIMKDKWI
AKT1, sequence (P31749 whole entry, species assumed, the tested form may be a part): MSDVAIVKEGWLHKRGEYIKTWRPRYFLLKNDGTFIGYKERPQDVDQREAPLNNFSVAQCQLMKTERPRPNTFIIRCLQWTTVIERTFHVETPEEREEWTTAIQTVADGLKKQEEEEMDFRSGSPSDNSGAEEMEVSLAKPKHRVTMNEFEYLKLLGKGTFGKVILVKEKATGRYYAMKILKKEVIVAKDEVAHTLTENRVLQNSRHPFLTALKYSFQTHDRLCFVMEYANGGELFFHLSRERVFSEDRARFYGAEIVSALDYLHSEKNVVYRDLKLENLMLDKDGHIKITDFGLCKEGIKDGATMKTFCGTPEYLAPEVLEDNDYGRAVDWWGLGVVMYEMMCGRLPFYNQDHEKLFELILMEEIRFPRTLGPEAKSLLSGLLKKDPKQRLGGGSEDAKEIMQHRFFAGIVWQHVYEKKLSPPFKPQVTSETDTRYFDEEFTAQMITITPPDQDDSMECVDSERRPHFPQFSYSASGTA
Src, sequence (P12931 whole entry, species assumed): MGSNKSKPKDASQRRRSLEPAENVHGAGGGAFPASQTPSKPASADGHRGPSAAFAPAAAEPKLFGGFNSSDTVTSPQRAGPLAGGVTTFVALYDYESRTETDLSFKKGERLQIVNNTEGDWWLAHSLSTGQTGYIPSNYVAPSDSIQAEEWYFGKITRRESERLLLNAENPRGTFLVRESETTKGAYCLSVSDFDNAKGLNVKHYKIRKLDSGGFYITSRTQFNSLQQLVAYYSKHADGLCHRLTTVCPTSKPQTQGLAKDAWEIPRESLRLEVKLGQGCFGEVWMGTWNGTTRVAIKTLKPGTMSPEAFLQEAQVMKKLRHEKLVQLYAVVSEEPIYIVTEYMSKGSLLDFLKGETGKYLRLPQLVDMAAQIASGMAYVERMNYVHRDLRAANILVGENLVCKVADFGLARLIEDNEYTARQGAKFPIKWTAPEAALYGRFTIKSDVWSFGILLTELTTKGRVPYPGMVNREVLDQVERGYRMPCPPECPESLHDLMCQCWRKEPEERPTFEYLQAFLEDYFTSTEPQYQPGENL

IC50 (AKT1): 2.87 ± 0.269 µM | IC50 (MARK4 catalytic domain [1]): 4.99 ± 0.812 µM | IC50 (PDK1): 1.68 ± 0.192 µM | IC50 (Src): 5.87 ± 0.405 µM
SMILES: O=C(NCCCNc1nc(Nc2cccc(NC(=O)N3CCCC3)c2)ncc1I)c1cccs1 [BX-795, reference compound]
Kd (MARK4): 6.46 µM

IC50 (SMMC-7721 cells [2]; Homo sapiens, MTT): 12.8 µM | IC50 (AKT1): 11.8 ± 0.336 µM | IC50 (HepG2 cells [3]; Homo sapiens, HepG2 cells, MTT): 11.2 µM | IC50 (MARK4 catalytic domain [1]): 1.3 ± 0.102 µM | inhibition at 10 µM (MARK4 catalytic domain [1]; at 10 μM): ~80% | Kd (MARK4 catalytic domain [4]): 0.346 µM | temperature shift of MARK4 thermal stability (ΔT) (MARK4 catalytic domain [7]): 3.13 °C | IC50 (PDK1): 5.97 ± 0.289 µM | IC50 (Src): 19 ± 1.32 µM
SMILES: COc1ccc2oc(=O)c(C(=O)c3ccccc3)cc2c1 [Compound 50, 3-benzoyl-6-methoxy-2H-chromen-2-one]
concentrations at which cell viability of HEK-293T cells was suppressed (HEK-293T cells): > 50 µM | viability at 2.5 µM (SMMC-7721 cells [2]; Homo sapiens, 2.5 μM compound alone, read-out: cell viability upon treatment): > 80% | inhibitory activity of paclitaxel in the presence of compound (SMMC-7721 cells [2]; varied paclitaxel concentrations with 2.5 μM compound 50): remarkably enhanced | effect of MARK4-knockdown on anti-proliferative activity (HepG2 cells [3]; HepG2 cells transiently transfected with MARK4-knockdown vs control vectors): significantly attenuated | inhibitory activity of paclitaxel in the presence of compound (HepG2 cells [3]; HepG2 cells, varied paclitaxel concentrations with 2.5 μM compound 50): remarkably enhanced | viability at 2.5 µM (HepG2 cells [3]; Homo sapiens, HepG2 cells, 2.5 μM compound alone, read-out: cell viability upon treatment): > 80% | level of MAP4 phosphorylation (MAP4 phosphorylation): decreased | colony formation of HepG2 cells (HepG2 cells [5]): significantly suppressed | apoptosis, single agent (HepG2 cells [6]; 2.5 μM alone): unable to trigger distinct apoptosis | apoptosis: cell numbers of early and late apoptotic cells (HepG2 cells [6]; 15 μM, 36 h): obviously increased | apoptosis, combination with paclitaxel (HepG2 cells [6]; compound 50 2.5 μM in combination with paclitaxel 2.5 μM): activated HCC apoptosis | apoptosis: cell numbers of early and late apoptotic cells (SMMC-7721 cells [8]): obviously increased
